Patent US6495491B1, “Substituted cyanophenyl uracils” (Bayer Aktiengesellschaft, priority 1995, dated 2002)

Legend:
Assay type in all cases: in vivo
[1] = system: Matricaria; experiment: Post-emergence test, Matricaria; details: application rates between 30 and 500 g/ha, after three weeks
Method: (§1) Solvent: 5 parts by weight of acetone
(§2) Emulsifier: 1 part by weight of alkylaryl polyglycol ether
(§3) To produce a suitable preparation of active compound, 1 part by weight of active compound is mixed with the stated amount of solvent, the stated amount of emulsifier is added and the concentrate is diluted with water to the desired concentration.
(§4) Test plants which have a height of 5-15 cm are sprayed with the preparation of the active compound in such a way as to apply the particular amounts of active compound desired per unit area. The concentration of the spray liquor is chosen so that the particular desired amounts of active compound are applied in 2000 l of water/ha.
(§5) After three weeks, the degree of damage to the plants is rated in % damage by comparison with the development of the untreated control.
(§6) 0%=no effect (like untreated control)

[2] = system: Chenopodium; experiment: Post-emergence test, Chenopodium; details: application rates between 30 and 500 g/ha, after three weeks
Method: as §1, §2, §3, §4, §5, §6

[3] = system: Abutilon; experiment: Post-emergence test, Abutilon; details: application rates between 30 and 500 g/ha, after three weeks
Method: as §1, §2, §3, §4, §5, §6

[4] = system: Abutilon; experiment: Pre-emergence test, Abutilon; details: application rates between 8 and 125 g/ha, after three weeks
Method: as §1, §2, §3
(§7) Seeds of the test plants are sown in normal soil. After 24 hours, the soil is watered or sprayed with the preparation of the active compound. It is advantageous to keep the amount of water per unit area constant. The concentration of the active compound in the preparation is immaterial, only the amount of active compound applied per unit area matters.
as §5, §6

[5] = system: wheat; experiment: Pre-emergence test, crop tolerance wheat; details: application rates between 8 and 125 g/ha, after three weeks
Method: as §1, §2, §3, §7, §5, §6

[6] = system: Chenopodium; experiment: Pre-emergence test, Chenopodium; details: application rates between 8 and 125 g/ha, after three weeks
Method: as §1, §2, §3, §7, §5, §6

[7] = system: Matricaria; experiment: Pre-emergence test, Matricaria; details: application rates between 8 and 125 g/ha, after three weeks
Method: as §1, §2, §3, §7, §5, §6

COc1cc(-n2c(=O)cc(C(F)(F)F)n(C)c2=O)c(F)cc1C#N [Example 2, 1-(4-cyano-2-fluoro-5-methoxy-phenyl)-3,6-dihydro-2,6-dioxo-3-methyl-4-trifluoromethyl-1(2H)-pyrimidine]
degree of damage to the plants, % damage [1]: 100% | degree of damage to the plants, % damage [2]: 100% | degree of damage to the plants, % damage [3]: 100% | degree of damage to the plants, % damage [4]: 100% | degree of damage to the plants, % damage (tolerance by crops) [5]: 0% | degree of damage to the plants, % damage [6]: 100 %/o | degree of damage to the plants, % damage [7]: 100 %/o
